22 molecules from patent publication US20140206681A1, “BTK INHIBITORS” (priority 2013, published 2014) can be followed below.

The target of assay [1] is T1, BTK enzyme (recombinant full-length BTK, hBTK) (Homo sapiens, UniProt Q06187).
T1 construct: recombinant protein from baculovirus-transfected Sf9 cells: full-length BTK, 6HIS-tag cleaved; 6HIS (cleaved yes); made in house; host or cells: baculovirus-transfected Sf9 cells
The assay is described as follows: BTK enzyme activity assay, LANCE TR-FRET. The class given is biochemical. To be noted: 50 pM hBTK, 2 μM biotin-A5-peptide, 25 μM ATP; 60 min compound & enzyme incubation; read-out: IC50 BTK activity value. (Time-resolved FRET reads energy transfer from a long-lived donor to a nearby acceptor.)

The subject of another assay is HeLa cells. The assay is described as follows: [3H]Adenosine uptake functional cellular assay. The format is cell-based. To be noted: Homo sapiens, HeLa, accumulation of [3H]adenosine into HeLa cells; compound range 10 μM to […]; read-out: Adenosine uptake inhibition IC50. A digest of the protocol: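 Inhibition of adenosine uptake was measured in HeLa cells (ATCC CCL-2) by following accumulation of tritiated adenosine. Cells were kept overnight at 37° C. with 5% (v/v) CO2, then switched to 40 μL HBSS plus 5% (v/v) FBS. 20 μL of 500 nM [3H]adenosine was added, and uptake was counted on a Topcount NXT reader.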

Structures are written as SMILES.

One may read the IC50 as the concentration at which inhibition is half-maximal.

T1 sequence (Q06187 whole entry): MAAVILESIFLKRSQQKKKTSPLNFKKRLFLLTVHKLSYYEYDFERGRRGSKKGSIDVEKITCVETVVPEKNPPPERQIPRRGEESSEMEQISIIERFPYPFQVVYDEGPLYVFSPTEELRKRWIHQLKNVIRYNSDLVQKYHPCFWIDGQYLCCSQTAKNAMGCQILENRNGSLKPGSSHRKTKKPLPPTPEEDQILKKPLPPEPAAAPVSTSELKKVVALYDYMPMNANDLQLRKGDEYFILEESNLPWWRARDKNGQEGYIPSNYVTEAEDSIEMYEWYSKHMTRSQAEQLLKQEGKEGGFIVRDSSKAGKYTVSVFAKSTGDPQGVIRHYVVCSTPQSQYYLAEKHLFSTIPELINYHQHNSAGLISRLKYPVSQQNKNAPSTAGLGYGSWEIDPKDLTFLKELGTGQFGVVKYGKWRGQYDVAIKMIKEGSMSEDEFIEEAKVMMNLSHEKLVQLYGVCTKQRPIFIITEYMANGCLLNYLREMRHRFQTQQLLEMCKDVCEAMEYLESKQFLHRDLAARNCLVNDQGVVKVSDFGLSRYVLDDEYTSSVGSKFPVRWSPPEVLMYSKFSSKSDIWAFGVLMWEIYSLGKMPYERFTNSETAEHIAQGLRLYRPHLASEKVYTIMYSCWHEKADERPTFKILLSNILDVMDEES

Regarding `Nc1nccn2c([C@@H]3CC[C@H]4CCC(=O)N4C3)nc(-c3ccc(C(=O)Nc4cc(C(F)(F)F)ccn4)cc3OC(F)F)c12` [Example 71, 4-{8-amino-3-[(6R,8aS)-3-oxooctahydroindolizin-6-yl]imidazo[1,5-a]pyrazin-1-yl}-3-(difluoromethoxy)-N-[4-(trifluoromethyl)pyridin-2-yl]benzamide], the IC50 in assay [1] was 0.48 nM; in the assay with HeLa cells it was 732 nM.

On to `Nc1nccn2c([C@H]3CC[C@H]4C[C@@H](O)C(=O)N4C3)nc(-c3ccc(C(=O)Nc4cc(C(F)(F)F)ccn4)cc3)c12` [Example 73, 4-{8-amino-3-[(2R,6S,8aS)-2-hydroxy-3-oxooctahydroindolizin-6-yl]imidazo[1,5-a]pyrazin-1-yl}-N-[4-(trifluoromethyl)pyridin-2-yl]benzamide], for which the concentration for half-maximal inhibition (IC50) in assay [1] was 0.93 nM; in the assay on HeLa cells, 973 nM.

With `Nc1nccn2c([C@H]3CN4C(=O)OC[C@H]4CO3)nc(-c3ccc(C(=O)Nc4cc(C(F)(F)F)ccn4)cc3)c12` [Example 76, 4-(8-amino-3-((6R,8aR)-3-oxohexa hydrooxazolo[4,3-c][1,4]oxazin-6-yl)imidazo[1,5-a]pyrazin-1-yl)-N-(4-(trifluoromethyl)pyridin-2-yl)benzamide], the IC50 in assay [1] amounted to 24.9 nM; in the assay with HeLa cells, 682 nM.

For the molecule `C[C@H]1OC[C@@H]2CC[C@@H](c3nc(-c4ccc(C(=O)Nc5cc(C(F)(F)F)ccn5)cc4)c4c(N)nccn34)CN2C1=O` [Example 77, 4-(8-amino-3-((3R,7R,9aS)-3-methyl-4-oxooctahydropyrido[2,1-c][1,4]oxazin-7-yl)imidazo[1,5-a]pyrazin-1-yl)-N-(4-(trifluoromethyl)pyridin-2-yl)benzamide], the IC50 in assay [1] came to 0.13 nM; in the assay with HeLa cells, 31.2 nM.

Regarding `N#C/N=C1\CC[C@@H]2CC[C@@H](c3nc(-c4ccc(C(=O)Nc5cc(C(F)(F)F)ccn5)cc4)c4c(N)nccn34)CN12` [Example 78, 4-(8-amino-3-((6R,8aS,E)-3-(cyanoimino)octahydroindolizin-6-yl)imidazo[1,5-a]pyrazin-1-yl)-N-(4-(trifluoromethyl)pyridin-2-yl)benzamide], the IC50 in assay [1] came to 0.46 nM; in the assay with HeLa cells it was 132 nM.

Consider `COC(=O)Nc1nccn2c([C@@H]3CC[C@H]4CCC(=O)N4C3)nc(-c3ccc(C(=O)Nc4cc(C(F)(F)F)ccn4)cc3)c12` [Example 79, methyl (3-((6R,8aS)-3-oxooctahydroindolizin-6-yl)-1-(4-((4-(trifluoromethyl)pyridin-2-yl)carbamoyl)phenyl)imidazo[1,5-a]pyrazin-8-yl)carbamate], for which the IC50 in assay [1] came out at 7.3 nM; in the assay with HeLa cells, 295 nM.

For `CCN1CC(=O)N2C[C@H](c3nc(-c4ccc(C(=O)Nc5cc(C(F)(F)F)ccn5)cc4)c4c(N)nccn34)CC[C@H]2C1` [Example 80, 4-(8-amino-3-((7R,9aS)-2-ethyl-4-oxooctahydro-1H-pyrido[1,2-a]pyrazin-7-yl)imidazo[1,5-a]pyrazin-1-yl)-N-(4-(trifluoromethyl)pyridin-2-yl)benzamide], the results for the IC50 (in assay [1]; with HeLa cells) were 0.27 nM and 82.5 nM, respectively.

In the case of `CC(C)N1CC(=O)N2C[C@H](c3nc(-c4ccc(C(=O)Nc5cc(C(F)(F)F)ccn5)cc4)c4c(N)nccn34)CC[C@H]2C1` [Example 81], the IC50 in assay [1] is 0.29 nM; in the assay with HeLa cells, 68.6 nM.

Turning to `COC(=O)CN1CC(=O)N2C[C@H](c3nc(-c4ccc(C(=O)Nc5cc(C(F)(F)F)ccn5)cc4)c4c(N)nccn34)CC[C@H]2C1` [Example 82], the results for the IC50 (in assay [1]; in the assay on HeLa cells) were 0.19 nM and 78.1 nM, respectively.

As to `Nc1nccn2c([C@@H]3CC[C@H]4CCCN4C3)nc(-c3ccc(C(=O)Nc4cc(C(F)(F)F)ccn4)cc3)c12` [Example 87, 4-(8-amino-3-((6R,8aS)-octahydroindolizin-6-yl)imidazo[1,5-a]pyrazin-1-yl)-N-(4-(trifluoromethyl)pyridin-2-yl)benzamide], the half-maximal inhibitory concentration (IC50) amounted to 0.67 nM in assay [1] and 75.5 nM in the assay on HeLa cells.

In the case of `COc1cc(C(=O)Nc2cc(C(F)(F)F)ccn2)ccc1-c1nc([C@@H]2CC[C@H]3[C@@H](C)OC(=O)N3C2)n2ccnc(N)c12` [Example 89, 4-(8-amino-3-((1R,6R,8aS)-1-methyl-3-oxohexahydro-1H-oxazolo[3,4-a]pyridin-6-yl)imidazo[1,5-a]pyrazin-1-yl)-3-methoxy-N-(4-(trifluoromethyl)pyridin-2-yl)benzamide], the half-maximal inhibitory concentration (IC50) in assay [1] worked out at 0.13 nM; in the assay with HeLa cells it was 490 nM.

For `COc1cc(C(=O)Nc2cc(C(F)(F)F)ccn2)ccc1-c1nc([C@@H]2CC[C@@H]3N(C2)C(=O)OC3(C)C)n2ccnc(N)c12` [Example 90, 4-(8-amino-3-((6R,8aS)-1,1-dimethyl-3-oxohexahydro-1H-oxazolo[3,4-a]pyridin-6-yl)imidazo[1,5-a]pyrazin-1-yl)-3-methoxy-N-(4-(trifluoromethyl)pyridin-2-yl)benzamide], the IC50 in assay [1] came to 0.18 nM; in the assay on HeLa cells, 373 nM.

Regarding `COc1cc(C(=O)Nc2cc(C(F)(F)F)ccn2)ccc1-c1nc([C@H]2CN3C(=O)CC[C@@H]3CO2)n2ccnc(N)c12` [Example 91, 4-(8-amino-3-((3R,8aR)-6-oxohexahydro-1H-pyrrolo[2,1-c][1,4]oxazin-3-yl)imidazo[1,5-a]pyrazin-1-yl)-3-methoxy-N-(4-(trifluoromethyl)pyridin-2-yl)benzamide], the half-maximal inhibitory concentration (IC50) in assay [1] was determined as 0.52 nM; with HeLa cells it was 639 nM.

For `Nc1nccn2c([C@@H]3CC[C@H]4CCOC(=O)N4C3)nc(-c3ccc(C(=O)Nc4cc(C(F)(F)F)ccn4)cc3)c12` [Example 92, 4-{8-amino-3-[(4aS,7R)-1-oxohexahydro-3H-pyrido[1,2-c][1,3]oxazin-7-yl]imidazo[1,5-a]pyrazin-1-yl}-N-[4-(trifluoromethyl)pyridin-2-yl]benzamide], the IC50 in assay [1] is 0.075 nM; with HeLa cells it was 64.6 nM.

Take `Nc1nccn2c([C@H]3CC[C@@H]4CCOC(=O)N4C3)nc(-c3ccc(C(=O)Nc4cc(C(F)(F)F)ccn4)cc3)c12` [Example 93, 4-{8-amino-3-[(4aR,7S)-1-oxohexahydro-3H-pyrido[1,2-c][1,3]oxazin-7-yl]imidazo[1,5-a]pyrazin-1-yl}-N-[4-(trifluoromethyl)pyridin-2-yl]benzamide]: the concentration for half-maximal inhibition (IC50) was determined as 2.6 nM in assay [1] and 158 nM in the assay on HeLa cells.

Turning to `CC1(C)C[C@H]2CC[C@H](c3nc(-c4ccc(C(=O)Nc5cc(C(F)(F)F)ccn5)cc4)c4c(N)nccn34)CN2C1=O` [Example 94, 4-{8-amino-3-[(6S,8aR)-2,2-dimethyl-3-oxooctahydroindolizin-6-yl]imidazo[1,5-a]pyrazin-1-yl}-N-[4-(trifluoromethyl)pyridin-2-yl]benzamide], the IC50 in assay [1] worked out at 0.14 nM; in the assay with HeLa cells it was 63.2 nM.

For `C[C@@H]1OC(=N)N2C[C@H](c3nc(-c4ccc(C(=O)Nc5cc(C(F)(F)F)ccn5)cc4)c4c(N)nccn34)CC[C@@H]12` [Example 96, 4-{8-amino-3-[(1S,6R,8aS)-3-imino-1-methylhexahydro[1,3]oxazolo[3,4-a]pyridin-6-yl]imidazo[1,5-a]pyrazin-1-yl}-N-[4-(trifluoromethyl)pyridin-2-yl]benzamide], the figures for the IC50 (in assay [1]; in the assay on HeLa cells) were 1.3 nM and 1140 nM, respectively.

For the molecule `CC(O)c1ccnc(NC(=O)c2ccc(-c3nc([C@@H]4CC[C@H]5CCC(=O)N5C4)n4ccnc(N)c34)cc2)c1` (stereo partly drawn) [Example 97, 4-{8-amino-3-[(6R,8aS)-3-oxooctahydroindolizin-6-yl]imidazo[1,5-a]pyrazin-1-yl}-N-[4-(1-hydroxyethyl)pyridin-2-yl]benzamide], the results for the IC50 (in assay [1]; with HeLa cells) were 9.7 nM and 5380 nM, respectively.

As to `CC(C)(O)c1ccnc(NC(=O)c2ccc(-c3nc([C@@H]4CC[C@H]5CCC(=O)N5C4)n4ccnc(N)c34)cc2)c1` [Example 98, 4-{8-amino-3-[(6R,8aS)-3-oxooctahydroindolizin-6-yl]imidazo[1,5-a]pyrazin-1-yl}-N-[4-(1-hydroxy-1-methylethyl)pyridin-2-yl]benzamide], the half-maximal inhibitory concentration (IC50) was 49.3 nM in assay [1] and 6320 nM with HeLa cells.

For the molecule `COC(C)c1ccnc(NC(=O)c2ccc(-c3nc([C@@H]4CC[C@H]5CCC(=O)N5C4)n4ccnc(N)c34)cc2)c1` (stereo partly drawn) [Example 99, 4-{8-amino-3-[(6R,8aS)-3-oxooctahydroindolizin-6-yl]imidazo[1,5-a]pyrazin-1-yl}-N-[4-(1-methoxyethyl)pyridin-2-yl]benzamide], the IC50 in assay [1] came to 1.5 nM; with HeLa cells it was 184 nM.

Turning to `COc1cc(C(=O)Nc2cc(C(F)(F)F)ccn2)ccc1-c1nc([C@@H]2CC[C@H]3CC(C)(C)C(=O)N3C2)n2ccnc(N)c12` [Example 100, 4-{8-amino-3-[(6R,8aS)-2,2-dimethyl-3-oxooctahydroindolizin-6-yl]imidazo[1,5-a]pyrazin-1-yl}-3-methoxy-N-[4-(trifluoromethyl)pyridin-2-yl]benzamide], the IC50 in assay [1] was 0.51 nM; in the assay on HeLa cells, 463 nM.

With `COc1cc(C(=O)Nc2cc(C(F)(F)F)ccn2)ccc1-c1nc([C@H]2CC[C@@H]3CC(C)(C)C(=O)N3C2)n2ccnc(N)c12` [Example 101, 4-{8-amino-3-[(6S,8aR)-2,2-dimethyl-3-oxooctahydroindolizin-6-yl]imidazo[1,5-a]pyrazin-1-yl}-3-methoxy-N-[4-(trifluoromethyl)pyridin-2-yl]benzamide], the concentration for half-maximal inhibition (IC50) in assay [1] was determined as 45.4 nM; in the assay on HeLa cells, 487 nM.
